Laboratory results published in patent US7794761B2, “Methods for inducing anti-anxiety and calming effects in animals and humans” (Seroctin Research & Technology, Inc., priority 2000, dated 2010).

Tested on: montane vole, Microtus montanus
Experiment: Uterine weight response in female montane voles after intraperitoneal injection
Format: in vivo
Conditions: i.p. 5 mcg/day for three days; for Average Uterine Weight: sacrificed 24 hours after last injection, control 15.2 ± 2.4
Protocol: Female montane voles, Microtis montanus, received intra peritoneal injections of representative compounds belonging to Formulas I, II and III for three consecutive days and sacrificed twenty-four (24) hours after the last injection to examine uterine weight response. To assess the properties of each representative compound, pure ones made by chemical means (University of Utah Department of Chemistry, Salt Lake City, Utah) were prepared specifically for this test. All compounds were injected at a dose level of 5 mcg/day, dissolved in five percent (5%) propylene glycol for a total injection volume of 0.5 ml. Control animals received 0.5 ml of five percent (5%) propylene glycol only. All voles were 4-5 weeks old and weighed 25-29 g.

SMILES | Average Uterine Weight | increase in uterine weight over control group
COc1ccc(O)c(N)c1 [2-amino-4-methoxyphenol] | 22.2 ± 3.2 mg | 
COc1ccc(N)c(O)c1 [2-amino-5-methoxyphenol] | 21.8 ± 3.5 mg | 
CCOc1ccc(NC(C)=O)c(O)c1 [2-hydroxy-4-ethoxyacetanilide] | 22.2 ± 3.9 mg | 
COc1ccc(NC(C)=O)c(O)c1 [2-hydroxy-4-methoxyacetanilide] | 23.1 ± 2.7 mg | 
COc1ccc(O)c(NC(C)=O)c1 [2-hydroxy-5-methoxyacetanilide] | 21.1 ± 4.4 mg | 
COc1ccc2oc(=O)[nH]c2c1 [5-methoxy-2-benzoxazolinone] | 20.0 ± 4.7 mg | 32%
COc1ccc2[nH]c(=O)oc2c1 [6-methoxy-2-benzoxazolinone] | 27.7 ± 5.6 mg | 82%
